Laboratory results reported in patent publication US10603265B2, “Skin whitening peptide agents” (INSTITUT CURIE, priority 2014, dated 2020).
Where “and” joins values, the source holds several entries; their conditions need not be identical. Equal values may be shown once. Entries after “also recorded” stand apart in the source; their conditions may differ.

What was measured:
MNT-1 cells [1] = experiment: Melanin assay on MNT-1 cells; type: cell-based, human; conditions: MNT1 melanocytes, 3 days, 10 μM peptide, OD 492 nm, normalized to H2O control
Protocol: FIG. 4: MNT1 melanocytes were cultured 3 days with 10 μM of QK-5 peptide (SEQ ID NO: 16) or H2O as a control. Melanin estimation was performed as previously described (Delevoye et al., J Cell Biol. 2009 Oct. 19; 187(2):247-64), and normalized to the control. QK-5 peptide incubation decreased the intracellular melanin content about 40±0.02%. Data are presented as mean±standard deviation. *; p value (two tailed)<0.05.
The skin whitening activity of the peptide may further be determined by measuring the melanin content of melanocytic cells such as MNT-1 cells, incubated with the peptide. For example, the assay may be carried out as follow: at day 1, 10^5 MNT-1 cells are seeded in 6-well plates; From day 2 to day 4, cells are grown in medium comprising 10 μM of peptides; at day 5, cells are disrupted by sonication in 50 mM Tris-HCl, pH 7.4, 2 mM EDTA, 150 mM NaCl, 1 mM dithiothreitol, and protease inhibitors. Pigment is pelleted at 20,000 g for 15 min at 4° C., rinsed once in ethanol/ether (1:1), and dissolved in 2 M NaOH/20% dimethylsulfoxide at 60° C.; Melanin content is measured as optical density at 492 nm.
At day 1, 10^5 cells were seeded in 6-well plates. From day 2 to day 4, cells were grown in medium containing 1 or 10 μg of peptides. Medium was changed every day. […] Melanin content was measured as optical density at 492 nm.

[2] = system: 3D human reconstructed pigmented epidermis; experiment: Melanin assay on reconstructed human pigmented epidermis; type: cell-based; conditions: 10 days, 30 μM peptide, OD 492 nm, normalized to control
Protocol: FIG. 10: Melanin quantitation on 3D human reconstructed pigmented epidermis incubated 10 days with 30 μM of QA-3 peptides or AK-3 peptides. Synthetic epidermis were removed from their insert and dissolved in 400 μl of Solvable (Perkin Elmer) for 1 h at 100° C. Melanin quantification was performed on 200 μl by measuring the optical density at 492 nm. Melanin quantifications were normalized to the control. Both QA-3 and AK-3 peptides decreased about 22.5±13% or 21±10% the melanin production by synthetic skin epidermis. Data are presented as mean±standard deviation. *; p value (two tailed)<0.1.
Reconstructed human epidermal of phototype VI (Sterlab) were received at day 10 and incubated with the manufacturer's growth medium supplemented from day 11 to day 21 with 30 μg of peptides. As recommended, medium was changed every day. At day 21, the epidermis was separated from the insert, digested by incubation in 400 μl of Solvable (PerkinElmer) at 98° C. for 1 h. Melanin content was measured as optical density at 492 nm.

[3] = molecular target: T1, interaction of human AP-1 with human KIF13A (Homo sapiens, UniProt Q9H1H9); experiment: AP-1 immunoprecipitation / KIF13A western blot, HeLa cell lysates incubated with peptides; type: biochemical; conditions: 1 μg peptide, vs control without peptide
T1 construct: incubating independently g of each 12 peptides with HeLa cell lysates (non pigmented cells); endogenous in cells; host or cells: HeLa cell lysate
Protocol: FIG. 1: γ-adaptin subunit of the human AP-1 complex was immunoprecipitated from HeLa cell lysates in presence or not of 1 μg of the indicated 11 amino acids peptides (peptides AI, QT, GN, EK, EL, WQ; NY, QF, LM, FF, LK and RI: SEQ ID NO: 17, 28, 20, 1, 25, 27, 22, 21, 24, 23, 19 and 26, respectively) for 2 h at 4° C. under rotation. […] Molecular weight in kDa.
(§1) Cells at 80% of confluency were washed in cold PBS and lysed on ice in lysis buffer (50 mM Tris, 150 mM NaCl, 0.1% Triton X-100, 10 mM EDTA, pH 7.2, and protease inhibitor cocktail, Roche). Lysates were incubated overnight with 1 μg of peptides. Lysates were first precleared using protein G agarose beads for 1 h at 4° C. under rotation. Supernatants were collected and incubated with protein G agarose beads with 1 μg mouse monoclonal IgG2b anti-CD9 for 1 h at 4° C. under rotation. Precleared supernatants were incubated with beads coated earlier with 1 μg mouse monoclonal IgG2b anti-γ-adaptin for 2 h at 4° C. under rotation. As negative control, 1 μg mouse monoclonal IgG2b anti-CD9 was used to immunoprecipitate the lysate.
After five washes in cold lysis buffer and three washes in PBS, immunoprecipitated proteins bound to the beads were incubated in sample buffer with reducing agent, boiled for 10 min at 95° C., and fractionated by SDS-PAGE using Nupage (3-8%) Tris-acetate gels (Invitrogen). […]

AP-1/KIF13A interaction = molecular target: T2, AP-1/KIF13A interaction (Homo sapiens, UniProt Q9H1H9); experiment: AP-1 immunoprecipitation / KIF13A western blot, MNT-1 melanocyte lysates incubated with peptides; type: biochemical; conditions: MNT-1 melanocytic cell lysates, 1 μg peptide, KIF13A/AP-1 band intensity normalized to control
T2 construct: endogenous in cells; host or cells: MNT-1 (MNT1) human melanocytic cells
Protocol: FIG. 2: γ-adaptin subunit of the human AP-1 complex was immunoprecipitated from melanocytes (MNT1) cell lysates in presence or not of 1 μg of the indicated peptides (peptides SS-5, EK-11 and QK-5: SEQ ID NO: 28, 1 and 16, respectively) for 2 h at 4° C. under rotation. […] EK-11 and SS-5 peptides were used as a positive and negative controls, respectively. Molecular weight in kDa.
FIG. 3: Intensity of the immunoprecipitated KIF13A and AP-1 bands shown in FIG. 2 were quantified using ImageJ. KIF13A intensity were divided by its corresponding AP-1 intensity and normalized to the control (lysates incubated without peptides, first lane).
as §1, with “lysate. […]” for “lysate.”

MNT-1 cells [4] = experiment: Electron microscopy, grading of melanosome stages in MNT-1 cells; type: cell-based, human; conditions: MNT1 melanocytes, 3 days, 10 μM peptide, vs H2O control
Protocol: FIG. 6: MNT1 melanocytes were seeded on glass coverslips and cultured 3 days with 10 μM of QK-5 peptide (SEQ ID NO: 16; bottom panel) or H2O (top panel) as a control. Then cells were rapidly washed in DMEM at room temperature and fixed for 90 min with a mixture of 2.5% glutaraldehyde in 0.1 M cacodylate buffer for 90 min at 4° C., post-fixed with 1% OsO4/1.5% potassium ferrocyanide 45 min at 4° C., dehydrated in ethanol and embedded in Epon resin. Ultrathin (60-70 nm) sections were observed under a CM120 electron microscope (FEI company, Eindoven), equipped with a KeenView camera (Soft Imaging System; SIS, Germany). […] Scale bar: 2 μm.
FIG. 7: Melanosome stages were quantified based on their morphologies on MNT1 melanocytes treated as in FIG. 6. Stages I and II correspond to early non-pigmented melanosomes, melanin pigmentation is initiated in stage III, whereas stage IV is a fully mature and pigmented melanosome. Stages were counted and plotted as percentage of their total number.
Control and peptide-treated MNT-1 cells grown on coverslips for 3 days were fixed with 2.5% glutaraldehyde in 0.1M cacodylate buffer, pH 7.2 post-fixed with 1% OsO4 supplemented with 1.5% Potassium ferrocyanure, dehydrated in ethanol, and embedded in epon. Ultrathin sections were prepared with an Ulltracut UCT ultramicrotome (Leica) and observed under a CM120 electron microscope (FEI company, Eindoven) after counter-staining with uranyl acetate and lead citrate.
Grading of melanosomes stages from I to IV, based on morphology and melanin content, were done independently by two authors. The table below presents the criteria of analyses.

[5] = molecular target: T3, co-localization of KIF13A with AP-1 (Homo sapiens, UniProt Q9H1H9); experiment: Immunofluorescence colocalization of AP-1 with KIF13A in MNT-1 melanocytes; type: cell-based; conditions: MNT1 melanocytes, 3 days, 10 μM peptide, vs H2O control
T3 construct: endogenous in cells; host or cells: MNT-1 (MNT1) human melanocytic cells
Protocol: FIG. 5: MNT1 melanocytes were seeded on glass coverslips and cultured 3 days with 10 μM of QK-5 peptide (SEQ ID NO: 16) or H2O as a control. Cells were fixed in cold methanol and co-stained using a rabbit anti-human KIF13A and a mouse anti-human γ-adaptin as primary antibodies and goat anti-rabbit or mouse coupled to Alexa-488 or 546 (Molecular Probes). Coverslips were mounted in Dabco (Invitrogen) medium and images were acquired on an Eclipse 80i Upright Microscope (Nikon) and deconvoluted. Images are maximum-intensity z projections of up to 15 3D image stacks acquired using ImageJ software. Analysis was performed by quantifying the intensity of overlapping KIF13A and AP-1 pixels and by normalizing them to the control. QK-5 peptide incubation on melanocytes decreased about 84±7% the co-localization of KIF13A with AP-1. Data are presented as mean±standard deviation. ***; p value (two tailed)<0.001.
MNT-1 cells grown on coverslips were incubated for three days in medium containing 10 μg of peptides. Coverslips were rinsed in PBS, fixed in 100% cold methanol for 30 sec, followed by incubation in PBS and 1 mg/ml BSA. […]
Colocalization analysis was performed using ImageJ software. […] Then identical area inside cells were defined and analyzed for quantification.

T2 sequence (Q9H1H9 whole entry): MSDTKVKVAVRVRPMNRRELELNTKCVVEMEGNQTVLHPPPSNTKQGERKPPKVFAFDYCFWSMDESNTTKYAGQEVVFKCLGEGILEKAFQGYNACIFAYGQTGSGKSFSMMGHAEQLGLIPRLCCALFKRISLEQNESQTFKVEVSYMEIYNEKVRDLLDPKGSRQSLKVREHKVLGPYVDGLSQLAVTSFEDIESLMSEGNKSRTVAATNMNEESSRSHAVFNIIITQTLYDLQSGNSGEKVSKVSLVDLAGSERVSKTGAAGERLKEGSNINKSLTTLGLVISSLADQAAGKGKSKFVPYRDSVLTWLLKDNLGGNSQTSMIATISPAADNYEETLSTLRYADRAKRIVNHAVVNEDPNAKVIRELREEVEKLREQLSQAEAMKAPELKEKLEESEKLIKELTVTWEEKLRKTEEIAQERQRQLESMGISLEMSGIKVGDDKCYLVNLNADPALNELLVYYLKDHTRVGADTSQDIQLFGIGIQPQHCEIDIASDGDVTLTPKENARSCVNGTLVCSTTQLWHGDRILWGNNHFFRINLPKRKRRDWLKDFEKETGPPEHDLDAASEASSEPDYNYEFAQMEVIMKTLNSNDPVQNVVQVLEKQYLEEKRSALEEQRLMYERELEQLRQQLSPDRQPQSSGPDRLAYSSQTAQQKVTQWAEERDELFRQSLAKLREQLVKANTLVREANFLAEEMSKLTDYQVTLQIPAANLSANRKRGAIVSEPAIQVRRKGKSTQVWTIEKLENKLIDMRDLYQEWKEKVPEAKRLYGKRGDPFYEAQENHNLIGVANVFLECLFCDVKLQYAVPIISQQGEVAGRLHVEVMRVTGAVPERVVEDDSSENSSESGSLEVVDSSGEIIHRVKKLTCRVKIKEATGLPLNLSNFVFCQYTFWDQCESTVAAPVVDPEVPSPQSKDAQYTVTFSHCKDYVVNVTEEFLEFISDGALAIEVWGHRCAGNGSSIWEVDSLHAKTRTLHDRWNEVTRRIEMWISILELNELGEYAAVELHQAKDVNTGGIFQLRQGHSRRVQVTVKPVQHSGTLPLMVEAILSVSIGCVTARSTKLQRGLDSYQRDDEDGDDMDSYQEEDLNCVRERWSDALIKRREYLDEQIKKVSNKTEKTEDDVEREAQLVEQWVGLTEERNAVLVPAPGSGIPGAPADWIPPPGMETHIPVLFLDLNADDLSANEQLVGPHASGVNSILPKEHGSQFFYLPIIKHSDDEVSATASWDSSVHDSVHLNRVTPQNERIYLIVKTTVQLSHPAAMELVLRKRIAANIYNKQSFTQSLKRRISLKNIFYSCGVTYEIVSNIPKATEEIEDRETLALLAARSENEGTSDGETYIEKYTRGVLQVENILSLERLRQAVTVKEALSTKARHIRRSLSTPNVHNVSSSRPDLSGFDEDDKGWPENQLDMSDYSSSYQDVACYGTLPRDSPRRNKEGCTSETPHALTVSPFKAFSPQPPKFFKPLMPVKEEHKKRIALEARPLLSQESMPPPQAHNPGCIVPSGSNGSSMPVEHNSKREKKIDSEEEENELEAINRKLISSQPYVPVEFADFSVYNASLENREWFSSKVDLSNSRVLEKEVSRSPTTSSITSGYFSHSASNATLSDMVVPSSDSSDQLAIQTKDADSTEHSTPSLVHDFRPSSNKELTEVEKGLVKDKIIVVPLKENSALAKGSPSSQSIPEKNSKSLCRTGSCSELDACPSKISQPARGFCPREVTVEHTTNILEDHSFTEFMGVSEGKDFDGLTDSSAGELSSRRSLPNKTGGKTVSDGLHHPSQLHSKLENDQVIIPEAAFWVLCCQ
T3 sequence (Q9H1H9 whole entry): as above
T1 sequence (Q9H1H9 whole entry): as above

Substance | decrease of the intracellular melanin content (MNT-1 cells [1]) | decrease of melanin production / pigmentation of reconstructed epidermis [2] | decrease of the interaction of AP-1 with KIF13A [3] | decrease of the AP-1/KIF13A interaction (AP-1/KIF13A interaction) | early melanosome Stages (I and II) (MNT-1 cells [4]) | number of Stage III melanosomes (MNT-1 cells [4]) | number of Stage IV (fully mature pigmented) melanosomes (MNT-1 cells [4]) | decrease of the colocalization of KIF13A with AP-1 [5]
AVK [AK-3] | 22±8% and ~21.3±8% | 21±10% | – | – | – | – | – | –
EPLNNLQVAVK (listed as Homo sapiens) [EK-11] | – | – | about 52.6±7% | 57.5±8% | – | – | – | –
QVAVK (listed as Homo sapiens) [QK-5] | – | – | – | 56.1±6% | without affecting the early Stages (I and II) | increased their number of Stage III; also recorded: increased the number of less mature and pigmented stages III | decreased their number of Stage IV melanosomes; also recorded: fewer dark-pigmented granules; also recorded: decreased the number of stage IV melanosomes | about 84±7%
